Data from patent publication US9700043B2, “Corrosive ingredient(s)-containing compositions having reduced toxicity and method of obtaining” (S. C. Johnson & Son, Inc., priority 2014, dated 2017).

System: bovine cornea
Test: Bovine cornea opacity and permeability (BCOP) ocular irritation assay
Settings: mean data, Conc. neat, exposure time 10 minutes
Description: Products including one or more ingredients which are corrosive in nature and present in a product at a level which normally cause ocular irritation are modified to have reduced ocular irritation without replacing the corrosive ingredient(s) and without reducing the amount of the corrosive ingredient(s) used in a product. The level of corrosiveness or the hazards of a product is determined under EPA regulations. EPA toxicity testing is based on determining the level of ocular irritation caused by a product. This EPA standard is used herein to evidence the reduced corrosive nature of products of the invention. The test used is the bovine cornea opacity and permeability (BCOP) method which is an Organization for Economic Co-operation and Development (OECD) validated method for assessing ocular irritation and has recently been accepted by the EPA as an alternative to the traditional Draize animal test. The BCOP test method is described in the “OECD Guidelines For The Testing Of Chemicals”, No. 437, adopted Jul. 26, 2013 and entitled “Bovine Corneal Opacity and Permeability Test Method for Identifying i) Chemicals Inducing Serious Eye Damage and ii) Chemicals Not Requiring Classification for Eye Irritation or Serious Eye Damage”. […]
Step 3—Initial Opacity. The cMEM is removed and refilled and the initial opacity is read on an opacitometer. […]
Step 5—Rinsing. Corneas are rinsed thoroughly to remove the test substance and incubated for two (2) hours before a final opacity reading. […]
Formulas of the same ingredients as in Example 4 were also tested with lower or higher amounts of CARBOPOL® EZ-2 with respective adjustments in the water concentration. […] The viscosities of the 0.25% solution was ˜4 cps, of the 0.55% solution ˜10 cps, of the 0.75% solution ˜200 cps, of the 1.0% solution (shown above) ˜8,000 cps, (each of the former being measured by Brookfield LVT, spindle 1, speed 30 rpm) and of the 1.25% solution ˜18,700 cps (being measured by Brookfield LVT, spindle 4, speed 30 rpm). […]

SMILES: CCO [Ethanol (Control), Ethanol]
- OD490 Value (fluorescein permeability): 0.899
- Opacity Value (n=3 corneas per sample): 28.7
- In Vitro Score (EPA: score ≧75 = Category I): 42.2
